Assay results published in the NIST ThermoML archive (doi:10.1016/j.fluid.2012.01.023).

How the values were obtained:
[1] = Liquid, Vibrating tube method
[2] = xn = mol fraction of the nth substance listed; conditions: Liquid; for viscosity: Electromagnetically Driven Piston; for mass density: Vibrating tube method

CCCCCCCCCCCCCC [tetradecane]
[1]
Conditions	mass density [kg/m3]
294.4 K, 5030 kPa	764
294.6 K, 8000 kPa	766
294.6 K, 9490 kPa	767
294.8 K, 2050 kPa	760
294.8 K, 3540 kPa	762
294.8 K, 6500 kPa	765
324 K, 3540 kPa	743
324 K, 5050 kPa	744
324 K, 6560 kPa	746
324.1 K, 2070 kPa	742
324.1 K, 8070 kPa	747
324.1 K, 9540 kPa	748
373.3 K, 5060 kPa	711
373.3 K, 6560 kPa	712
373.5 K, 2100 kPa	708
373.5 K, 3560 kPa	709
373.5 K, 8030 kPa	713
373.5 K, 9500 kPa	715
447.5 K, 4920 kPa	660
447.5 K, 6450 kPa	662
447.6 K, 1990 kPa	655
447.6 K, 3590 kPa	658
447.6 K, 7960 kPa	665
447.6 K, 9470 kPa	667

CCCCCCCCCCCCCC [tetradecane] + C
[2]
Conditions	mass density [kg/m3]	viscosity [mPa·s]
294.4 K, x2 = 0.232	740	1.48
294.6 K, x2 = 0.331	728	1.16
294.6 K, x2 = 0.364	723	1.05
294.8 K, x2 = 0.112	752	1.74
294.8 K, x2 = 0.176	746	1.64
294.8 K, x2 = 0.282	734	1.33
324 K, x2 = 0.159	726	0.97
324 K, x2 = 0.213	722	0.91
324 K, x2 = 0.264	716	0.82
324.1 K, x2 = 0.1	732	1.07
324.1 K, x2 = 0.306	711	0.75
324.1 K, x2 = 0.342	706	0.7
373.3 K, x2 = 0.193	689	0.51
373.3 K, x2 = 0.239	683	0.49
373.5 K, x2 = 0.09	699	0.57
373.5 K, x2 = 0.143	694	0.54
373.5 K, x2 = 0.279	678	0.46
373.5 K, x2 = 0.317	674	0.44
447.5 K, x2 = 0.176	636	0.28
447.5 K, x2 = 0.223	631	0.27
447.6 K, x2 = 0.078	646	0.31
447.6 K, x2 = 0.137	640	0.29
447.6 K, x2 = 0.266	625	0.25
447.6 K, x2 = 0.303	620	0.24
